Source: paper PMC9510826, “Catalytic promiscuity of O-methyltransferases from Corydalis yanhusuo leading to the structural diversity of benzylisoquinoline alkaloids” (Horticulture Research, 2022)

Biological target: T1, CyOMT2 (Corydalis yanhusuo, UniProt Z9M545XIG0, L253C)
T1 sequence (Z9M545XIG0 1-349 L253C): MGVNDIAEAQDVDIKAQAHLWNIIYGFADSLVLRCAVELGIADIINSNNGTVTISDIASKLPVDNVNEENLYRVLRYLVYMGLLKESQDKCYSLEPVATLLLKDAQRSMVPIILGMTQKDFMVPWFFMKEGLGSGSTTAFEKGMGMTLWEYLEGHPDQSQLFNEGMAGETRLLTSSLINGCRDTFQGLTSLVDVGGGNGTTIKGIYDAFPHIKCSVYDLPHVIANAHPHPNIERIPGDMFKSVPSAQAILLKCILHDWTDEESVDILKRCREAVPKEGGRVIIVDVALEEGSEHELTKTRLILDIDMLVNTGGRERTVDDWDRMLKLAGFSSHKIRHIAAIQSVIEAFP
Assay: UPLC product quantification, Michaelis-Menten fit
Assay type: biochemical
Conditions: 200 μM SAM, 30 min
Excerpt: UPLC product quantification, Michaelis-Menten fit on CyOMT2

Structure (SMILES) | Km (50 mM phosphate pH 7.5, 45°C) [µM] | Km (50 mM phosphate pH 7.0, 40°C) [µM]
Oc1ccc(C[C@@H]2NCCc3cc(O)c(O)cc32)cc1 [compound 1, norcoclaurine] | 19.4 ± 3.39 | 
COc1cc2c(cc1O)CC[n+]1cc3c(OC)c(OC)ccc3cc1-2 [compound 14, jatrorrhizine] |  | 34.8 ± 3.7
COc1cc2c(cc1O)[C@@H]1Cc3ccc(OC)c(O)c3CN1CC2 [compound 15, scoulerine] |  | 12.2 ± 1.72
